System: MV-4-11 cells
Test: Gene expression microarray analysis (Affymetrix PrimeView) and GSEA
Format: cell-based, human
Set-up: RFU PODN (11730768_x_at) / Fold change /veh PODN (11730768_x_at) / RFU LINC00158 (11744669_a_at) / Fold change /veh LINC00158 (11744669_a_at) / RFU DUSP10 (11751237_a_at) / Fold change /veh DUSP10 (11751237_a_at) / RFU ID3 (11757404_x_at) / Fold change /veh ID3 (11757404_x_at) / RFU PLEKHG5 (11737974_s_at) / Fold change /veh PLEKHG5 (11737974_s_at) / RFU LRRC4B (11730491_at) / Fold change /veh LRRC4B (11730491_at) / RFU GIMAP4 (11747438_a_at) / Fold change /veh GIMAP4 (11747438_a_at) / RFU KRT8 (11758183_x_at) / Fold change /veh KRT8 (11758183_x_at) / RFU CNN1 (11734310_a_at) / Fold change /veh CNN1 (11734310_a_at) / RFU VPS37D (11726825_at) / Fold change /veh VPS37D (11726825_at) / RFU C10orf10 (11716522_x_at) / Fold change /veh C10orf10 (11716522_x_at) / RFU KIR2DL2 /// KIR2DL4 /// KIR2DL5A /// KIR2DL5B /// KIR2DS1 /// KIR2DS2 /// KIR2DS3 /// KIR2DS4 /// KIR3DL3 /// KIR3DL3 /// KIR3DS1 (11738374_at) / Fold change /veh KIR2DL2 /// KIR2DL4 /// KIR2DL5A /// KIR2DL5B /// KIR2DS1 /// KIR2DS2 /// KIR2DS3 /// KIR2DS4 /// KIR3DL3 /// KIR3DL3 /// KIR3DS1 (11738374_at) / RFU C1QL1 (11718748_at) / Fold change /veh C1QL1 (11718748_at) / RFU TMPRSS4 (11747572_a_at) / Fold change /veh TMPRSS4 (11747572_a_at) / RFU HAMP (11756126_x_at) / Fold change /veh HAMP (11756126_x_at) / RFU RNFT2 (11725882_a_at) / Fold change /veh RNFT2 (11725882_a_at) / RFU NR4A2 (11747474_a_at) / Fold change /veh NR4A2 (11747474_a_at) / RFU ABCC12 (11746883_a_at) / Fold change /veh ABCC12 (11746883_a_at) / RFU TMEM136 (11760407_x_at) / Fold change /veh TMEM136 (11760407_x_at) / RFU CLDN22 /// WWC2 (11732394_at) / Fold change /veh CLDN22 /// WWC2 (11732394_at) / RFU HLA-DPB1 (11760878_x_at) / Fold change /veh HLA-DPB1 (11760878_x_at) / RFU SPINT1 (11716480_a_at) / Fold change /veh SPINT1 (11716480_a_at) / RFU GAP43 (11754022_s_at) / Fold change /veh GAP43 (11754022_s_at) / RFU A4GNT (11735810_at) / Fold change /veh A4GNT (11735810_at) / RFU PRB3 (11715151_x_at) / Fold change /veh PRB3 (11715151_x_at) / RFU TUBB4B (11761932_at) / Fold change /veh TUBB4B (11761932_at) / RFU CAPN14 (11732068_a_at) / Fold change /veh CAPN14 (11732068_a_at) / RFU TMCC2 (11721928_a_at) / Fold change /veh TMCC2 (11721928_a_at) / RFU IRGQ (11745062_a_at) / Fold change /veh IRGQ (11745062_a_at) / RFU FAM174B (11720279_a_at) / Fold change /veh FAM174B (11720279_a_at) / RFU TMPRSS4 (11748680_a_at) / Fold change /veh TMPRSS4 (11748680_a_at) / RFU FAM212B (11763350_a_at) / Fold change /veh FAM212B (11763350_a_at) / RFU PLEKHG5 (11743358_a_at) / Fold change /veh PLEKHG5 (11743358_a_at) / RFU ZSCAN30 (11745921_a_at) / Fold change /veh ZSCAN30 (11745921_a_at) / RFU CMKLR1 (11741424_a_at) / Fold change /veh CMKLR1 (11741424_a_at) / RFU LOC101060620 /// MAPK8IP1 (11723275_at) / Fold change /veh LOC101060620 /// MAPK8IP1 (11723275_at) / RFU SPTSSB (11747773_x_at) / Fold change /veh SPTSSB (11747773_x_at) / RFU PRSS12 (11739890_at) / Fold change /veh PRSS12 (11739890_at) / RFU BIN1 (11741810_x_at) / Fold change /veh BIN1 (11741810_x_at) / RFU WNT11 (11732464_a_at) / Fold change /veh WNT11 (11732464_a_at) / RFU C10orf10 (11716521_a_at) / Fold change /veh C10orf10 (11716521_a_at) / RFU C5orf56 (11738089_at) / Fold change /veh C5orf56 (11738089_at) / RFU CYB561 (11721691_x_at) / Fold change /veh CYB561 (11721691_x_at) / RFU ANKRD19P (11752326_a_at) / Fold change /veh ANKRD19P (11752326_a_at) / RFU OR2T12 /// OR2T33 /// OR2T8 (11738714_s_at) / Fold change /veh OR2T12 /// OR2T33 /// OR2T8 (11738714_s_at) / RFU VCAN (11748164_a_at) / Fold change /veh VCAN (11748164_a_at) / RFU JSRP1 (11732532_at) / Fold change /veh JSRP1 (11732532_at) / RFU KRTAP10-11 (11738290_x_at) / Fold change /veh KRTAP10-11 (11738290_x_at) / RFU MYO3A (11730013_a_at) / Fold change /veh MYO3A (11730013_a_at) / RFU EBF3 (11725865_a_at) / Fold change /veh EBF3 (11725865_a_at) / RFU CAMK2N1 (11719241_x_at) / Fold change /veh CAMK2N1 (11719241_x_at) / RFU C5orf56 (11738088_a_at) / Fold change /veh C5orf56 (11738088_a_at) / RFU OLFML3 (11715873_a_at) / Fold change /veh OLFML3 (11715873_a_at) / RFU LOC100653217 /// NTM (11731650_a_at) / Fold change /veh LOC100653217 /// NTM (11731650_a_at) / RFU MAPK11 (11762145_a_at) / Fold change /veh MAPK11 (11762145_a_at) / RFU FIZ1 (11724087_x_at) / Fold change /veh FIZ1 (11724087_x_at) / RFU OASL (11726364_x_at) / Fold change /veh OASL (11726364_x_at) / RFU SOX15 (11748057_x_at) / Fold change /veh SOX15 (11748057_x_at) / RFU CD79A (11719716_a_at) / Fold change /veh CD79A (11719716_a_at) / RFU HIST1H1D (11736915_at) / Fold change /veh HIST1H1D (11736915_at) / RFU CASKIN2 (11723855_a_at) / Fold change /veh CASKIN2 (11723855_a_at) / RFU LOC730098 (11760151_x_at) / Fold change /veh LOC730098 (11760151_x_at) / RFU OR4N2 (11742367_at) / Fold change /veh OR4N2 (11742367_at) / RFU PRRT2 (11749266_a_at) / Fold change /veh PRRT2 (11749266_a_at) / RFU SNX32 (11753110_a_at) / Fold change /veh SNX32 (11753110_a_at) / RFU CDHR5 (11726645_a_at) / Fold change /veh CDHR5 (11726645_a_at) / RFU RCAN1 (11760418_a_at) / Fold change /veh RCAN1 (11760418_a_at) / RFU FAM167A (11723789_a_at) / Fold change /veh FAM167A (11723789_a_at) / RFU FAM26E (11764081_at) / Fold change /veh FAM26E (11764081_at) / RFU ISYNA1 (11749810_s_at) / Fold change /veh ISYNA1 (11749810_s_at) / RFU ACY1 (11761880_at) / Fold change /veh ACY1 (11761880_at) / RFU 11764098_at / Fold change /veh 11764098_at / RFU SAMD14 (11745864_x_at) / Fold change /veh SAMD14 (11745864_x_at) / RFU NPB (11741838_a_at) / Fold change /veh NPB (11741838_a_at) / RFU TMPRSS6 (11731388_a_at) / Fold change /veh TMPRSS6 (11731388_a_at) / RFU KRTAP10-2 (11738614_at) / Fold change /veh KRTAP10-2 (11738614_at) / RFU ARHGAP8 /// PRR5-ARHGAP8 (11727945_x_at) / Fold change /veh ARHGAP8 /// PRR5-ARHGAP8 (11727945_x_at) / RFU KRTAP5-7 /// NADSYN1 (11734609_at) / Fold change /veh KRTAP5-7 /// NADSYN1 (11734609_at) / RFU RASL12 (11751679_a_at) / Fold change /veh RASL12 (11751679_a_at) / RFU CDKN2B (11736163_a_at) / Fold change /veh CDKN2B (11736163_a_at) / RFU PRF1 (11729649_at) / Fold change /veh PRF1 (11729649_at) / RFU, ZNF638 /// ZNF638-IT1 / Fold change vs veh, ZNF638 /// ZNF638-IT1 / RFU, PANK3 / Fold change vs veh, PANK3 / RFU, SH3YL1 / Fold change vs veh, SH3YL1 / RFU, ZEB2 / Fold change vs veh, ZEB2 / RFU, NRIP1 / Fold change vs veh, NRIP1 / RFU, PTTG1IP / Fold change vs veh, PTTG1IP / RFU, CAPN2 / Fold change vs veh, CAPN2 / RFU, MED14 / Fold change vs veh, MED14 / RFU, SNORA58 / Fold change vs veh, SNORA58 / RFU, C1orf63 / Fold change vs veh, C1orf63 / RFU, LRRFIP1 / Fold change vs veh, LRRFIP1 / RFU, NDUFAF7 / Fold change vs veh, NDUFAF7 / RFU, SLC12A2 / Fold change vs veh, SLC12A2 / RFU, IBTK / Fold change vs veh, IBTK / RFU, ESF1 / Fold change vs veh, ESF1 / Fold change vs veh, TMEM50B / RFU, TAOK1 / Fold change vs veh, TAOK1 / RFU, ACBD3 / Fold change vs veh, ACBD3 / RFU, TMA16 / Fold change vs veh, TMA16 / RFU, RWDD3 / Fold change vs veh, RWDD3 / RFU, BCAT1 / Fold change vs veh, BCAT1 / RFU, EDEM3 / Fold change vs veh, EDEM3 / RFU, TMEM33 / Fold change vs veh, TMEM33 / RFU, WDR75 / Fold change vs veh, WDR75 / RFU, AHCTF1 / Fold change vs veh, AHCTF1 / RFU, TFRC / Fold change vs veh, TFRC / RFU, ZDHHC17 / Fold change vs veh, ZDHHC17 / RFU, NOM1 / Fold change vs veh, NOM1 / RFU, ARL8B / Fold change vs veh, ARL8B / RFU, ZBTB11 / Fold change vs veh, ZBTB11 / RFU, TAMM41 / Fold change vs veh, TAMM41 / RFU, KIAA1704 /// LOC100996395 / Fold change vs veh, KIAA1704 /// LOC100996395 / RFU, ING1 / Fold change vs veh, ING1 / RFU, TRMT61B / Fold change vs veh, TRMT61B / RFU, FUBP3 / Fold change vs veh, FUBP3 / RFU, TP53 / Fold change vs veh, TP53 / RFU, TNKS2 / Fold change vs veh, TNKS2 / RFU, ZFP14 / Fold change vs veh, ZFP14 / RFU, ACTR2 / Fold change vs veh, ACTR2 / RFU, PPP3R1 / Fold change vs veh, PPP3R1 / RFU, PIK3R1 / Fold change vs veh, PIK3R1 / RFU, HNRNPA1 / Fold change vs veh, HNRNPA1 / RFU, RNF170 / Fold change vs veh, RNF170 / RFU, ZNF28 / Fold change vs veh, ZNF28 / RFU, RNGTT / Fold change vs veh, RNGTT / RFU, OGT / Fold change vs veh, OGT / RFU, BRD1 / Fold change vs veh, BRD1 / RFU, MARS / Fold change vs veh, MARS / RFU, ZNF655 / Fold change vs veh, ZNF655 / RFU, FAHD1 / Fold change vs veh, FAHD1 / RFU, BDP1 / Fold change vs veh, BDP1 / RFU, LRRCC1 / Fold change vs veh, LRRCC1 / RFU, ARID1A / Fold change vs veh, ARID1A / RFU, ZNF146 / Fold change vs veh, ZNF146 / RFU, ZNF330 / Fold change vs veh, ZNF330 / RFU, GPN3 / Fold change vs veh, GPN3 / RFU, C9orf123 / Fold change vs veh, C9orf123 / RFU, N4BP2L2 / Fold change vs veh, N4BP2L2 / RFU, ARFIP1 / Fold change vs veh, ARFIP1 / RFU, FAM179B / Fold change vs veh, FAM179B / RFU, BCL10 / Fold change vs veh, BCL10 / RFU, UHRF1BP1L / Fold change vs veh, UHRF1BP1L / RFU, BET1 / Fold change vs veh, BET1 / RFU, CNOT2 / Fold change vs veh, CNOT2 / RFU, ZNF268 / Fold change vs veh, ZNF268 / Fold change vs veh, ZNF507 / RFU, DGCR2 / Fold change vs veh, DGCR2 / RFU, WDSUB1 / Fold change vs veh, WDSUB1 / Fold change vs veh, HSP90B1 /// MIR3652 / RFU, ADSS / Fold change vs veh, ADSS / RFU, GK / Fold change vs veh, GK / RFU, ZNF148 / Fold change vs veh, ZNF148 / RFU, TAF9 / Fold change vs veh, TAF9 / RFU, SLC1A5 / Fold change vs veh, SLC1A5 / RFU, SLMO2 / Fold change vs veh, SLMO2 / RFU, ABCC4 / Fold change vs veh, ABCC4 / RFU, LOC101060439 /// RAP1B / Fold change vs veh, LOC101060439 /// RAP1B / RFU, RFX7 / Fold change vs veh, RFX7 / RFU, GTPBP10 / Fold change vs veh, GTPBP10 / RFU, CNEP1R1 / Fold change vs veh, CNEP1R1 / RFU, BIVM-ERCC5 /// ERCC5 / Fold change vs veh, BIVM-ERCC5 /// ERCC5 / RFU, ILF3 / Fold change vs veh, ILF3 / RFU 11762660_at / Fold change /veh 11762660_at / RFU VCAN (11757783_s_at) / Fold change /veh VCAN (11757783_s_at) / RFU DDX43 (11728927_at) / Fold change /veh DDX43 (11728927_at) / RFU KRT8 (11758188_x_at) / Fold change /veh KRT8 (11758188_x_at) / RFU NKD1 (11759106_at) / Fold change /veh NKD1 (11759106_at) / RFU SRD5A1 (11742802_a_at) / Fold change /veh SRD5A1 (11742802_a_at) / RFU TPSAB1 /// TPSB2 (11721975_s_at) / Fold change /veh TPSAB1 /// TPSB2 (11721975_s_at) / RFU GSTM3 (11746129_a_at) / Fold change /veh GSTM3 (11746129_a_at) / RFU IL23R (11737362_x_at) / Fold change /veh IL23R (11737362_x_at) / RFU TMEM51 (11727254_a_at) / Fold change /veh TMEM51 (11727254_a_at) / RFU PIWIL2 (11732686_x_at) / Fold change /veh PIWIL2 (11732686_x_at) / RFU ORM1 (11744905_x_at) / Fold change /veh ORM1 (11744905_x_at) / RFU CCDC152 (11743942_at) / Fold change /veh CCDC152 (11743942_at) / RFU ECM1 (11717891_a_at) / Fold change /veh ECM1 (11717891_a_at) / RFU IL23R (11748794_a_at) / Fold change /veh IL23R (11748794_a_at) / RFU TNFAIP8L3 (11732012_x_at) / Fold change /veh TNFAIP8L3 (11732012_x_at) / RFU MBOAT4 (11741988_at) / Fold change /veh MBOAT4 (11741988_at) / RFU 11764193_at / Fold change /veh 11764193_at / RFU TMEM53 (11763286_at) / Fold change /veh TMEM53 (11763286_at) / RFU MAGEB2 (11727129_at) / Fold change /veh MAGEB2 (11727129_at) / RFU TMEM200A (11744735_a_at) / Fold change /veh TMEM200A (11744735_a_at) / RFU CCDC152 (11751479_a_at) / Fold change /veh CCDC152 (11751479_a_at) / RFU FAM211A (11726209_a_at) / Fold change /veh FAM211A (11726209_a_at) / RFU RGS16 (11746705_a_at) / Fold change /veh RGS16 (11746705_a_at) / RFU VCAN (11755009_s_at) / Fold change /veh VCAN (11755009_s_at) / RFU RHOB (11743442_s_at) / Fold change /veh RHOB (11743442_s_at) / RFU RGS16 (11720943_a_at) / Fold change /veh RGS16 (11720943_a_at) / RFU RGS16 (11720944_at) / Fold change /veh RGS16 (11720944_at) / RFU, VPS4B / Fold change vs veh, VPS4B / RFU, CREB1 / Fold change vs veh, CREB1 / RFU, DNAJC13 / Fold change vs veh, DNAJC13 / RFU, GNAQ / Fold change vs veh, GNAQ / RFU, CDK5R1 / Fold change vs veh, CDK5R1 / RFU, ZRANB3 / Fold change vs veh, ZRANB3 / RFU, CUL4A / Fold change vs veh, CUL4A / RFU, CCNY / Fold change vs veh, CCNY / RFU, UFL1 / Fold change vs veh, UFL1 / RFU, COG3 / Fold change vs veh, COG3 / RFU, DIAPH2 / Fold change vs veh, DIAPH2 / RFU, SKA2 / Fold change vs veh, SKA2 / RFU, AFF3 / Fold change vs veh, AFF3 / RFU, LMF1 / Fold change vs veh, LMF1 / RFU, IPO11 / Fold change vs veh, IPO11 / RFU, DFFB / Fold change vs veh, DFFB / RFU, FOXP1 / Fold change vs veh, FOXP1 / RFU, CARD8 / Fold change vs veh, CARD8 / RFU, STRN3 / Fold change vs veh, STRN3 / RFU, ADK / Fold change vs veh, ADK / RFU, RASSF2 / Fold change vs veh, RASSF2 / RFU, WIPF1 / Fold change vs veh, WIPF1 / RFU, LARP1B / Fold change vs veh, LARP1B / RFU, RASA1 / Fold change vs veh, RASA1 / RFU, RB1 / Fold change vs veh, RB1 / RFU, PPFIA1 / Fold change vs veh, PPFIA1 / RFU, MAT2A / Fold change vs veh, MAT2A / RFU, CCT5 / Fold change vs veh, CCT5 / RFU, WDR92 / Fold change vs veh, WDR92 / RFU, CUX1 / Fold change vs veh, CUX1 / RFU, TTC7A / Fold change vs veh, TTC7A / RFU, TMEM135 / Fold change vs veh, TMEM135 / RFU, DEPTOR / Fold change vs veh, DEPTOR / RFU, CPM / Fold change vs veh, CPM / RFU, DNAJB6 / Fold change vs veh, DNAJB6 / RFU, CACNA2D3 / Fold change vs veh, CACNA2D3 / RFU, DTX4 / Fold change vs veh, DTX4 / RFU, TFCP2 / Fold change vs veh, TFCP2 / RFU, GMCL1 /// GMCL1P1 / Fold change vs veh, GMCL1 /// GMCL1P1 / RFU, AEBP2 / Fold change vs veh, AEBP2 / RFU, SNHG1 /// SNORD22 /// SNORD25 /// SNORD26 /// SNORD27 /// SNORD28 /// SNORD29 /// SNORD31 / Fold change vs veh, SNHG1 /// SNORD22 /// SNORD25 /// SNORD26 /// SNORD27 /// SNORD28 /// SNORD29 /// SNORD31 / Fold change (Aza/veh), C12orf56 (ProbeSet 11735607_a_at) / Fold change (ACY-1035/veh), C12orf56 (ProbeSet 11735607_a_at) / Fold change (Aza/veh), FGFR1OP (ProbeSet 11751329_s_at) / Fold change (ACY-1035/veh), FGFR1OP (ProbeSet 11751329_s_at) / Fold change (Aza/veh), VPS36 (ProbeSet 11739960_a_at) / Fold change (ACY-1035/veh), VPS36 (ProbeSet 11739960_a_at) / RFU SYPL1 (11715823_x_at) / Fold change /veh SYPL1 (11715823_x_at) / RFU IGFBP7 (11715501_s_at) / Fold change /veh IGFBP7 (11715501_s_at) / RFU REEP3 (11722064_at) / Fold change /veh REEP3 (11722064_at) / RFU IGLL1 (11728026_x_at) / Fold change /veh IGLL1 (11728026_x_at): dose or concentration left out as unconfirmed
Conditions: ProbeSet 11727827_x_at; LIST B

Nc1ncn([C@@H]2O[C@H](CO)[C@@H](O)[C@H]2O)c(=O)n1 [azacitidine]
Fold change vs veh, NDUFAF7: 0.98
